Laboratory results from ChEMBL document CHEMBL5696441 (Nat Chem Biol, 2011).

Tests used:
[1] = system: Epidermal growth factor receptor (Homo sapiens), P00533 [L858R]; test: Inhibition of human EGFR L858R mutant assessed as residual activity at 1 uM using PolyEY as substrate in presence of 33P-ATP by ProQinase assay relative to control
[2] = biological target: Tyrosine-protein kinase Fyn (Homo sapiens) (UniProt P06241); test: Inhibition of FYN (unknown origin) assessed as remaining activity at 1 uM by Kinome scan method relative to control
[3] = biological target: Serine/threonine-protein kinase TBK1 (Homo sapiens) (UniProt Q9UHD2); test: Inhibition of TBK1 (unknown origin) assessed as remaining activity at 1 uM by Kinome scan method relative to control
[4] = biological target: Serine/threonine-protein kinase Nek4 (Homo sapiens) (UniProt P51957); test: Inhibition of human NEK4 assessed as residual activity at 1 uM using MBP as substrate in presence of 33P-ATP by ProQinase assay relative to control
[5] = biological target: Serine/threonine-protein kinase pim-3 (Homo sapiens) (UniProt Q86V86); test: Inhibition of human PIM3 assessed as residual activity at 1 uM using RBER-GSK3(14-27) as substrate in presence of 33P-ATP by ProQinase assay relative to control
[6] = system: Proto-oncogene tyrosine-protein kinase receptor Ret (Homo sapiens), P07949 [V804L]; test: Inhibition of RET V804L (unknown origin) assessed as remaining activity at 1 uM by Kinome scan method relative to control
[7] = system: Fibroblast growth factor receptor 3 (Homo sapiens), P22607 [K650E]; test: Inhibition of human FGFR3 K650E mutant assessed as residual activity at 1 uM using PolyEY as substrate in presence of 33P-ATP by ProQinase assay relative to control
[8] = biological target: Protein kinase C delta type (Homo sapiens) (UniProt Q05655); test: Inhibition of PRKCD (unknown origin) assessed as remaining activity at 1 uM by Kinome scan method relative to control
[9] = biological target: Insulin-like growth factor 1 receptor (Homo sapiens) (UniProt P08069); test: Inhibition of IGF1R (unknown origin) assessed as remaining activity at 1 uM by Kinome scan method relative to control
[10] = biological target: Ribosomal protein S6 kinase alpha-2 (Homo sapiens) (UniProt Q15349); test: Inhibition of C-terminal kinase domain RPS6KA2 (unknown origin) assessed as remaining activity at 1 uM by Kinome scan method relative to control
[11] = biological target: Ephrin type-B receptor 2 (Homo sapiens) (UniProt P29323); test: Inhibition of human EPHB2 assessed as residual activity at 1 uM using poly(Ala,Glu,Lys,Tyr)6:2:5:1 as substrate in presence of 33P-ATP by ProQinase assay relative to control
[12] = biological target: Casein kinase II subunit alpha' (Homo sapiens) (UniProt P19784); test: Inhibition of CSNK2A2 (unknown origin) assessed as remaining activity at 1 uM by Kinome scan method relative to control
[13] = system: Tyrosine-protein kinase ABL1 (Homo sapiens), P00519 [H396P]; test: Inhibition of human ABL1 H396P mutant assessed as residual activity at 1 uM using Poly(Ala,Glu,Lys,Tyr)6:2:5:1 as substrate in presence of 33P-ATP by ProQinase assay relative to control
TAK1/TAB1 (Homo sapiens) = TAK1/TAB1 (Homo sapiens) (UniProt Q15750+O43318); test: Inhibition of human MAP3K7/MAP3K7IP1 assessed as residual activity at 1 uM using RB-S6P as substrate in presence of 33P-ATP by ProQinase assay relative to control; type: protein-complex assay
[14] = biological target: Protein kinase C epsilon type (Homo sapiens) (UniProt Q02156); test: Inhibition of human PKCepsilon assessed as residual activity at 1 uM using 3xChocktide-PKC(19-31) as substrate in presence of 33P-ATP by ProQinase assay relative to control
[15] = biological target: Tyrosine-protein kinase Fgr (Homo sapiens) (UniProt P09769); test: Inhibition of human FGR assessed as residual activity at 1 uM using polyEY as substrate in presence of 33P-ATP by ProQinase assay relative to control
[16] = biological target: T1, Aurora kinase C (Homo sapiens) (UniProt Q9UQB9); test: Inhibition of human AuroraC assessed as residual activity at 1 uM using bio-4xCHKT as substrate in presence of 33P-ATP by ProQinase assay relative to control
T1 sequence (whole entry): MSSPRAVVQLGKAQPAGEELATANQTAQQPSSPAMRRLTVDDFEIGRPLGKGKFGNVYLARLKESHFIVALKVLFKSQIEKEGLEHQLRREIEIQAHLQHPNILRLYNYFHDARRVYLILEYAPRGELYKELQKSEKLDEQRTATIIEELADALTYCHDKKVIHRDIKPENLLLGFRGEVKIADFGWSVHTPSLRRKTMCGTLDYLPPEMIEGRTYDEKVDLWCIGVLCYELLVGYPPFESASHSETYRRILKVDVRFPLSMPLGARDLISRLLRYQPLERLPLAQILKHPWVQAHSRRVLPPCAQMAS

[17] = biological target: Tyrosine-protein kinase FRK (Homo sapiens) (UniProt P42685); test: Inhibition of FRK (unknown origin) assessed as remaining activity at 1 uM by Kinome scan method relative to control
[18] = biological target: CDK9/cyclin T1 (Homo sapiens) (UniProt O60563+P50750); test: Inhibition of human CDK9/CyclinT1 assessed as residual activity at 1 uM using RBER-CHKtide as substrate in presence of 33P-ATP by ProQinase assay relative to control; type: protein-complex assay
[19] = biological target: Ribosomal protein S6 kinase alpha-2 (Homo sapiens) (UniProt Q15349); test: Inhibition of human RPS6KA2 assessed as residual activity at 1 uM using bio-4xCHKT as substrate in presence of 33P-ATP by ProQinase assay relative to control

Chain of Ribosomal protein S6 kinase alpha-2 (Homo sapiens) (Q15349 whole entry, the tested form may be a part): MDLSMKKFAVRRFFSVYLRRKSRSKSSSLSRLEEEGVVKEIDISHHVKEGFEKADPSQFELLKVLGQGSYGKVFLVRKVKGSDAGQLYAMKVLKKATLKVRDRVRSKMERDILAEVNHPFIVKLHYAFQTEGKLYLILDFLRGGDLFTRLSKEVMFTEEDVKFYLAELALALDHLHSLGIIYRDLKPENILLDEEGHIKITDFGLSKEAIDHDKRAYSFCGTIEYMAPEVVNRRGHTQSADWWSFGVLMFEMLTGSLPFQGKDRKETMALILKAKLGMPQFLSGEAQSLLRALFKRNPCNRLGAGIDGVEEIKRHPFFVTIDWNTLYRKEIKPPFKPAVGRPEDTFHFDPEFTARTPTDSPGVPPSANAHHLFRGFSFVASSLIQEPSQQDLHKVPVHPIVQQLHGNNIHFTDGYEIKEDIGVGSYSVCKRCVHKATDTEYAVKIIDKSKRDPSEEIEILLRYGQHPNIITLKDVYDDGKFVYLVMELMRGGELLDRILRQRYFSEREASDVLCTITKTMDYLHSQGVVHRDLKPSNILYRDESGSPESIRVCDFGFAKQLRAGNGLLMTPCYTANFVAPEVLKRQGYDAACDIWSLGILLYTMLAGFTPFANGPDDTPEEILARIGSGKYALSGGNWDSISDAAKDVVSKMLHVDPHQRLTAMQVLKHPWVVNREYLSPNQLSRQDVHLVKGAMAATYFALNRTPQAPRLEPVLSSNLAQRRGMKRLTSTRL
Chain of Serine/threonine-protein kinase TBK1 (Homo sapiens) (Q9UHD2 whole entry): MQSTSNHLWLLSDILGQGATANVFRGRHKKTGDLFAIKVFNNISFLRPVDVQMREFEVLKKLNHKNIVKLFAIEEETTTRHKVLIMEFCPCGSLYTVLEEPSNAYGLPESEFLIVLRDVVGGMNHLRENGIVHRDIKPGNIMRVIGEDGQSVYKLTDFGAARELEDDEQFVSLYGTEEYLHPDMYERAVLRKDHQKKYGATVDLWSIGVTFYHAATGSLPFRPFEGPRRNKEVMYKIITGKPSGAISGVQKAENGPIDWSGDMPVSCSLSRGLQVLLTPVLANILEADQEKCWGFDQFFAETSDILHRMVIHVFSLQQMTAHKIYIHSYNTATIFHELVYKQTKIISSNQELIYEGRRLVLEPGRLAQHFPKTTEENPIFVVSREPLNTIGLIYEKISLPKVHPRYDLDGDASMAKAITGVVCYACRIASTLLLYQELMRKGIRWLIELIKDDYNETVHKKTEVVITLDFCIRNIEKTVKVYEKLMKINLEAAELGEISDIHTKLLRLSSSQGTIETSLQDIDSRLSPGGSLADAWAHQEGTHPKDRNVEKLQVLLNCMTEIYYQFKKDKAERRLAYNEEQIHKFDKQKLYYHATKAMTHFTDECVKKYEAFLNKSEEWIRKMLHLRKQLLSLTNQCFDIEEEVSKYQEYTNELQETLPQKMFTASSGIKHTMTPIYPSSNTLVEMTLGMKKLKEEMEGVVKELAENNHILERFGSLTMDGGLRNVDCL
Chain of Tyrosine-protein kinase Fgr (Homo sapiens) (P09769 2-529 limits assumed): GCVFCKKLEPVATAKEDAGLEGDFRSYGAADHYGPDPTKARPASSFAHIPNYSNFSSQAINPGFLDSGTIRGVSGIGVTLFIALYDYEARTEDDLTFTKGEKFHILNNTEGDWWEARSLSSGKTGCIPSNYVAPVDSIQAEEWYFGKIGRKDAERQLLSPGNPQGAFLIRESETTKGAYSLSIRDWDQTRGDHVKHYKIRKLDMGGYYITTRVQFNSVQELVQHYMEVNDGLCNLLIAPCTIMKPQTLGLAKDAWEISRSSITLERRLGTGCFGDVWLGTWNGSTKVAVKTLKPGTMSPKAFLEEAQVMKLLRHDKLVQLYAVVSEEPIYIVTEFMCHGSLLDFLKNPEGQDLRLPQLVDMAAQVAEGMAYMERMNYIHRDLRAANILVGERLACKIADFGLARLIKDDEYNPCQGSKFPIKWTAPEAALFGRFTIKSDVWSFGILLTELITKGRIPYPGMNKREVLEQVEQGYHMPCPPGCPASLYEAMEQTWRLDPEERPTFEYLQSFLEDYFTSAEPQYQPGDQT
Chain of Tyrosine-protein kinase Fyn (Homo sapiens) (P06241 2-537 limits assumed): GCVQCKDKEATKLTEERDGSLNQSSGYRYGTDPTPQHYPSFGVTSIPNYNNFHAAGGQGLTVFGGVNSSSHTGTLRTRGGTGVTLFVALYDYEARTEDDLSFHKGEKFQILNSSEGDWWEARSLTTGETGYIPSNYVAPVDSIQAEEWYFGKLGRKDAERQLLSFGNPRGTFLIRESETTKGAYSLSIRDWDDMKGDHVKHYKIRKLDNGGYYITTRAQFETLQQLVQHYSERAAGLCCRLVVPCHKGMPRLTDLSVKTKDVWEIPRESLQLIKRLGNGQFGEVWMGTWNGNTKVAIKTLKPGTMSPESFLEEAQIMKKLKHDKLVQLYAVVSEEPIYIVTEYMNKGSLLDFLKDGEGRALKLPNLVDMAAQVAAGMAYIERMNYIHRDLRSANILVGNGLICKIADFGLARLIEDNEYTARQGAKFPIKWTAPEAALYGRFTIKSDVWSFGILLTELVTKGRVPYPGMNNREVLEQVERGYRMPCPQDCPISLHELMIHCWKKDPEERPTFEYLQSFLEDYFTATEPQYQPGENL
Chain of Serine/threonine-protein kinase Nek4 (Homo sapiens) (P51957 whole entry, looked up): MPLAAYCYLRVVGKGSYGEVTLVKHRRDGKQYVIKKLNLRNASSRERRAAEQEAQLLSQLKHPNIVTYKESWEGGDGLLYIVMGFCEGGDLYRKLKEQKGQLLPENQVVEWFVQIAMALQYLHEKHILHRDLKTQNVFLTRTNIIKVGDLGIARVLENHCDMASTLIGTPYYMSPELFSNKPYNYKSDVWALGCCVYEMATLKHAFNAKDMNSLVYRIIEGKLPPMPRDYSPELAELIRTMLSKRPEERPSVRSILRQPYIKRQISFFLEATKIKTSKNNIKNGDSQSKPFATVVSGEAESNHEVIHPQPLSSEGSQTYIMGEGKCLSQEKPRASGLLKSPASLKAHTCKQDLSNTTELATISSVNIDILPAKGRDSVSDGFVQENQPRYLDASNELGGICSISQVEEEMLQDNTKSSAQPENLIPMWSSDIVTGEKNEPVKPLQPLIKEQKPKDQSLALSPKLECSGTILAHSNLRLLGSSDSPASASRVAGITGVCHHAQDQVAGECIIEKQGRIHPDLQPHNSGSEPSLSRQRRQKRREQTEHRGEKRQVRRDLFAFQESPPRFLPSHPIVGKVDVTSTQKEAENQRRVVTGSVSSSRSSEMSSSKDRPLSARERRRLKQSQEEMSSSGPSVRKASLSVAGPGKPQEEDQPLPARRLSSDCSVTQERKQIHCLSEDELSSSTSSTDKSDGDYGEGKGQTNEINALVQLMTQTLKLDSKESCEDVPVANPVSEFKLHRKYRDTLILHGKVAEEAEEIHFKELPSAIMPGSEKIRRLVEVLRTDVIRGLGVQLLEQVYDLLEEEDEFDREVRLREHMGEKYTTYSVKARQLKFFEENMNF
Chain of Fibroblast growth factor receptor 3 (Homo sapiens), P22607 [K650E] (P22607 whole entry K650E): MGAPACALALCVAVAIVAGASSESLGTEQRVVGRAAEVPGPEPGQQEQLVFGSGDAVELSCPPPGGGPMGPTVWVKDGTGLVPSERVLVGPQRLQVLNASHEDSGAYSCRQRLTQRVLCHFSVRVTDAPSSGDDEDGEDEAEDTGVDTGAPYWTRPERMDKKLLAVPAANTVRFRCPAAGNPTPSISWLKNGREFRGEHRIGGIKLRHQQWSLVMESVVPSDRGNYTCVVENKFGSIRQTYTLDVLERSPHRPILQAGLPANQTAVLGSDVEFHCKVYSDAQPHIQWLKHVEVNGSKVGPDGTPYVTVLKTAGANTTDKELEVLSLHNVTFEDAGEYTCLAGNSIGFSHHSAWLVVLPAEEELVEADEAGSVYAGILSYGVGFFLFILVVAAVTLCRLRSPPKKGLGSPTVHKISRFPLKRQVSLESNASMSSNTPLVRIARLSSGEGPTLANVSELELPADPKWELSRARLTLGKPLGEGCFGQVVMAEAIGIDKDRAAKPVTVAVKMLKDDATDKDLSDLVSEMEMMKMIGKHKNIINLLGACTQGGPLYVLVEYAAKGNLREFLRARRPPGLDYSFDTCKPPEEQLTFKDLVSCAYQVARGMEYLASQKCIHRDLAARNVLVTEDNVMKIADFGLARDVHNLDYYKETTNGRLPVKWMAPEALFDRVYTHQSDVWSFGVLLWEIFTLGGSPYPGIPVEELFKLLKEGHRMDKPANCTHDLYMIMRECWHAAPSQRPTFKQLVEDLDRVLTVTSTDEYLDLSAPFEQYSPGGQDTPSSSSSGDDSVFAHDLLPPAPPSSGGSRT
Chain of Tyrosine-protein kinase FRK (Homo sapiens) (P42685 whole entry): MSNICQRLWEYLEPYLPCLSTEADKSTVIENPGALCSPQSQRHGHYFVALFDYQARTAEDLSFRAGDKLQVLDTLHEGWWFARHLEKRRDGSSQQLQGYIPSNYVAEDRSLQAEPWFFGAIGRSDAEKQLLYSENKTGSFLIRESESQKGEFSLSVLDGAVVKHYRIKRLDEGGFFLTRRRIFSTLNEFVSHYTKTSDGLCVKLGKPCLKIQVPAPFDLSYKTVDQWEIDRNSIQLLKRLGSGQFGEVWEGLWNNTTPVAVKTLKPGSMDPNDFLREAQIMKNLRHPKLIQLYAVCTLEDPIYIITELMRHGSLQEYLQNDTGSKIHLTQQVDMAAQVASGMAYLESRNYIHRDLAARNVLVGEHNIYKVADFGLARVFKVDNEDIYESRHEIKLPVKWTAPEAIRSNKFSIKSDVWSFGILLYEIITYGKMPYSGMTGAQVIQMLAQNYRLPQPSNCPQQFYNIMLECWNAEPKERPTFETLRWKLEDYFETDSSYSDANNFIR

Work on `O=C1c2ccc(Nc3ccc(F)cc3F)cc2CCc2ccc(OC[C@H](O)CO)cc21` [Skepinone-L] yielded an Activity [1] of 89%, an Activity [2] of 98% and an Activity [3] of 100%. For the same compound, the Activity [4] was 99%, the Activity [5] was 78% and the Activity [6] was 100%. For the same compound, the Activity [7] was 99%, the Activity [8] was 94% and the Activity [9] was 91%. For the same compound, the Activity [10] was 100%, the Activity [11] was 91% and the Activity [12] was 100%. For the same compound, the Activity [13] was 99%, the Activity (TAK1/TAB1 (Homo sapiens)) was 80% and the Activity [14] was 99%. For the same compound, the Activity [15] was 100%, the Activity [16] was 85% and the Activity [17] was 100%. It also gave an Activity [18] of 103% and an Activity [19] of 90%.
